Data: ChEMBL document CHEMBL2010665, “Novel, druglike 1,7-disubstituted 2,3,4,5-tetrahydro-1H-benzo[b]azepine-based selective inhibitors of human neuronal nitric oxide synthase (nNOS)” (Bioorg Med Chem Lett, 2012)

Legend:
Nitric oxide synthase 1 = Nitric oxide synthase 1 (Homo sapiens, UniProt P29475); test: Inhibition of human recombinant nNOS expressed in baculovirus infected insect sf9 cells assessed as conversion of [3H]-L-arginine into [3H]-L-citrulline by radiometric method
Nitric oxide synthase 3 = target: T1, Nitric oxide synthase 3 (Homo sapiens, UniProt P29474); test: Inhibition of human recombinant eNOS expressed in baculovirus infected insect sf9 cells assessed as conversion of [3H]-L-arginine into [3H]-L-citrulline by radiometric method
T1 sequence (P29474 whole entry): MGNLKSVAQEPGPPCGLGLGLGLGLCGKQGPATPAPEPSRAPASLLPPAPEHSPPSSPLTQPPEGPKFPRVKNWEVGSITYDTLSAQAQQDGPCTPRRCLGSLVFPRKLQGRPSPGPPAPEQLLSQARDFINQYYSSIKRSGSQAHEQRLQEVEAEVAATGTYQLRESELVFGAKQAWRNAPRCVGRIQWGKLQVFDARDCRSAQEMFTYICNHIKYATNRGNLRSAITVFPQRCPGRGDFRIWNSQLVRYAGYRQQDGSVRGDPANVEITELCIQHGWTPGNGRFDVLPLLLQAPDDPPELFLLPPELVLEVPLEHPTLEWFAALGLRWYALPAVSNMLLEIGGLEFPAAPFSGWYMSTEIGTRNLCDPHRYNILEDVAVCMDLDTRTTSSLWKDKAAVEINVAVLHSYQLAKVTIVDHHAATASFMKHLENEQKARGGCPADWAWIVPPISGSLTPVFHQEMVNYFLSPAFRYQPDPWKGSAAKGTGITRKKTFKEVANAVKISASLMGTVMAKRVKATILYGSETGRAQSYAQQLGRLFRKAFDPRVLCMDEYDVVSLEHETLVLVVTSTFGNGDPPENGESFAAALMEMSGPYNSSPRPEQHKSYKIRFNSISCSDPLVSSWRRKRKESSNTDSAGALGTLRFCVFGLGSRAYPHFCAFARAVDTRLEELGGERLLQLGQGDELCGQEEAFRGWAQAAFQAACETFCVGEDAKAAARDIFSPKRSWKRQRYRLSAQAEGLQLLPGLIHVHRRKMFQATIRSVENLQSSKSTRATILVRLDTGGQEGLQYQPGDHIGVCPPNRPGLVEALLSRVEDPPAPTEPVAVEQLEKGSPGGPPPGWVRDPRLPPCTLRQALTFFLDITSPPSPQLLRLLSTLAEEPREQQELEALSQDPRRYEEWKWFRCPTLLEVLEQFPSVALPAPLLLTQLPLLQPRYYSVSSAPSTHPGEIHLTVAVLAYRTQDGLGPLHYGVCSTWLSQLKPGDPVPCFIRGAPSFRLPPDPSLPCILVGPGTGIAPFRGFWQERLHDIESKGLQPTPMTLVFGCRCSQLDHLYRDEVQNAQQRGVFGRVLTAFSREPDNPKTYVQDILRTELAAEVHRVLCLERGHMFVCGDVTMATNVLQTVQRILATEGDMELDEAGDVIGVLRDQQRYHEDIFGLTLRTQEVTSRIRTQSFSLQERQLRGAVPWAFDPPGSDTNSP

[1] = target: Nitric oxide synthase, inducible (Homo sapiens, UniProt P35228); test: Inhibition of human recombinant iNOS expressed in baculovirus infected insect sf9 cells assessed as conversion of [3H]-L-arginine into [3H]-L-citrulline by radiometric method
[2] = target: Voltage-gated inwardly rectifying potassium channel KCNH2 (Homo sapiens, UniProt Q12809); test: Inhibition of human Erg expressed in HEK293 cells up to 30 uM by patch clamp assay; type: cell-based
[3] = target: Nitric oxide synthase, inducible (Rattus norvegicus, UniProt Q06518); test: Inhibition of rat iNOS
Chain of Nitric oxide synthase, inducible (Rattus norvegicus, UniProt Q06518) (Q06518 whole entry): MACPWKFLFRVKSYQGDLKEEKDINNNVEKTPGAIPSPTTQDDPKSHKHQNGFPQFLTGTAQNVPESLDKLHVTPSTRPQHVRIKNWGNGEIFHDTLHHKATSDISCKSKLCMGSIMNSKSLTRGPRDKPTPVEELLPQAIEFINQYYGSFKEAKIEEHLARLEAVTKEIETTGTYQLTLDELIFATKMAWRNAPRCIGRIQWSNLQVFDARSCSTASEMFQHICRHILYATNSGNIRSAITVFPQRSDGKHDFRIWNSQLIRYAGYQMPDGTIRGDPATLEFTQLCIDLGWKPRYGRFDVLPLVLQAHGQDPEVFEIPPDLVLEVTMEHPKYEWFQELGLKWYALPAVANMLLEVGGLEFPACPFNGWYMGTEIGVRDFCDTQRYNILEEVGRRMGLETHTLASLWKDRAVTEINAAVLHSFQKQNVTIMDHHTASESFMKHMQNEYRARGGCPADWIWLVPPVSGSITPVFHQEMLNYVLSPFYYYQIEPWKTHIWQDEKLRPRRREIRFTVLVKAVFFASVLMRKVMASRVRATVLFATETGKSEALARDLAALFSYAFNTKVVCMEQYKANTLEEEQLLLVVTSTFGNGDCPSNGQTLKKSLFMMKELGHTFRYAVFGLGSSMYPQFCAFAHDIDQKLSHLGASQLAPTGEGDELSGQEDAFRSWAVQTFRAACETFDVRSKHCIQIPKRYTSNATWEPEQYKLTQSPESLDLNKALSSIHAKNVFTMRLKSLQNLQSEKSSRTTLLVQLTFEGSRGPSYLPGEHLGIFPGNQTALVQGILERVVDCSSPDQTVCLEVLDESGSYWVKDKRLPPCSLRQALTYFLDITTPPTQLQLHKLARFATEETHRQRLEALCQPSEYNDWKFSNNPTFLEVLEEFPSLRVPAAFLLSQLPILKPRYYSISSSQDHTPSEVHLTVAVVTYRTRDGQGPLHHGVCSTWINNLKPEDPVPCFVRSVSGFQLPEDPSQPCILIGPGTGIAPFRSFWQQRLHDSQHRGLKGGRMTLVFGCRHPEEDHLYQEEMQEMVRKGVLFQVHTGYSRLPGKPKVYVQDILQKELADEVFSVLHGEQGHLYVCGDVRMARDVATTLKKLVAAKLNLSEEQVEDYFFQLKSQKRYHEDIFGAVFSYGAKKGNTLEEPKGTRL

Chain of Nitric oxide synthase 1 (P29475 whole entry): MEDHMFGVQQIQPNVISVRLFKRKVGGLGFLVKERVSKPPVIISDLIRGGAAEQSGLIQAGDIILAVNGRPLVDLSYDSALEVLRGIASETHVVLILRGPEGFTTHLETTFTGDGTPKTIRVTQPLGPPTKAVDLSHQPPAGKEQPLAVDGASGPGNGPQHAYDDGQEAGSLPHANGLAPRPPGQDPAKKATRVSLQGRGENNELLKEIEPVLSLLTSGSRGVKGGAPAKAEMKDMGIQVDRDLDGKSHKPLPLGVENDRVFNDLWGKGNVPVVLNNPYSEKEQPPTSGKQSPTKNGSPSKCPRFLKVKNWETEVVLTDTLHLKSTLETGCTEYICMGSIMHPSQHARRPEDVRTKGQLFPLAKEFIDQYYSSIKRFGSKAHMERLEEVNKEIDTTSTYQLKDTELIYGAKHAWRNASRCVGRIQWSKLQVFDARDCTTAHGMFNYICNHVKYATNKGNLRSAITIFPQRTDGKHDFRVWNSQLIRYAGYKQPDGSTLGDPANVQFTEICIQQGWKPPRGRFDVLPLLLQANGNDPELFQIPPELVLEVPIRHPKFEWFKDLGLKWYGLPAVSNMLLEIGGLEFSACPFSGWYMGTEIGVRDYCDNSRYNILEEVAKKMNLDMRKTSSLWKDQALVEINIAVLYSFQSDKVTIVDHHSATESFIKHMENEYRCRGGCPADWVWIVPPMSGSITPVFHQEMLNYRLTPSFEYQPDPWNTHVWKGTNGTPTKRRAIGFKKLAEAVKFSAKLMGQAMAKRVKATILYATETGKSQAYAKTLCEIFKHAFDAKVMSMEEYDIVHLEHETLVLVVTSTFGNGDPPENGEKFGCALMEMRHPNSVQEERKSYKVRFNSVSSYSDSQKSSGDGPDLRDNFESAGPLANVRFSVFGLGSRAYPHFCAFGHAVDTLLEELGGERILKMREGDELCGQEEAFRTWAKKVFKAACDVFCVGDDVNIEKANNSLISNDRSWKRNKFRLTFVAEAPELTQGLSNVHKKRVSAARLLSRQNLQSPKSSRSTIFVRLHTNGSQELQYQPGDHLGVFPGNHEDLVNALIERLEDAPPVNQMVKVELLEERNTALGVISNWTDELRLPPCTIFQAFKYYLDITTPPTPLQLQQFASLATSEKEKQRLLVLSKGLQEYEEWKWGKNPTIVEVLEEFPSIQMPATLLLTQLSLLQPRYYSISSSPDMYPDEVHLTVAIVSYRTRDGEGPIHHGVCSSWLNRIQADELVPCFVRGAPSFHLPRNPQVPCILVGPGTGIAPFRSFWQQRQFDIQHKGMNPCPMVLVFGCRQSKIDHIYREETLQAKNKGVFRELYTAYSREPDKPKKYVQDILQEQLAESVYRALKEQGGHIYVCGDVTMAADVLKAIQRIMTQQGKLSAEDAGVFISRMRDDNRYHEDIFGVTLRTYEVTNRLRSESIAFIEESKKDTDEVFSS
Chain of Nitric oxide synthase, inducible (Homo sapiens, UniProt P35228) (P35228 whole entry): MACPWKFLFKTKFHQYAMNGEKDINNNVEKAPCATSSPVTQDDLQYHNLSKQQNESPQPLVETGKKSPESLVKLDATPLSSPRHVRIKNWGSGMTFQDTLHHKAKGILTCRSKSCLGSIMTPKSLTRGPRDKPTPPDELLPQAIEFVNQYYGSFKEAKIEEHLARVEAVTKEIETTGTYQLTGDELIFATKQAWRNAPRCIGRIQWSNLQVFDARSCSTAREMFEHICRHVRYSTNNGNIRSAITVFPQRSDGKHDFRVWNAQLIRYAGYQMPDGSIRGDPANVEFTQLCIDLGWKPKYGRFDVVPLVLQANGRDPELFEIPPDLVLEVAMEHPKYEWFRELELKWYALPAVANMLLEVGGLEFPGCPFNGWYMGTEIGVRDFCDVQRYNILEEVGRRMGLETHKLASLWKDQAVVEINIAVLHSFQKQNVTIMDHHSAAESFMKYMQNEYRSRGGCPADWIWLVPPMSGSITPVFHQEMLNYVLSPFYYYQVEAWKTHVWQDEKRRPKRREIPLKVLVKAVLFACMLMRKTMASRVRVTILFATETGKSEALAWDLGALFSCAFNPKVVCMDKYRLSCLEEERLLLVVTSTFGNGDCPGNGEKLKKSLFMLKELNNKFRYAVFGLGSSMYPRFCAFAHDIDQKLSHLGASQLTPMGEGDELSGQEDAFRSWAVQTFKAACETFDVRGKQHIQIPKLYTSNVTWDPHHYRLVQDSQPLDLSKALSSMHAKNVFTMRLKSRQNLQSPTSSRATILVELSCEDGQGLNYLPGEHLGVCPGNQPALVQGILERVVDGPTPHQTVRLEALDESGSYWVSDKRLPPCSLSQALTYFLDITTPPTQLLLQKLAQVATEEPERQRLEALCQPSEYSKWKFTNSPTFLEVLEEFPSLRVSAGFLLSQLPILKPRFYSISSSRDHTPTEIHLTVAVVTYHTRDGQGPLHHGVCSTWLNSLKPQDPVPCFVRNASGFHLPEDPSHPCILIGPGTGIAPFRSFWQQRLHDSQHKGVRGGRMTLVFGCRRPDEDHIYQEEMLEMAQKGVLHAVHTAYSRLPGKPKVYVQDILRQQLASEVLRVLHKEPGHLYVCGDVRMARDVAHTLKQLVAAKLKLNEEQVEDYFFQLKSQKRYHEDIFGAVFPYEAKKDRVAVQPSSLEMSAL
Chain of Voltage-gated inwardly rectifying potassium channel KCNH2 (Q12809 whole entry): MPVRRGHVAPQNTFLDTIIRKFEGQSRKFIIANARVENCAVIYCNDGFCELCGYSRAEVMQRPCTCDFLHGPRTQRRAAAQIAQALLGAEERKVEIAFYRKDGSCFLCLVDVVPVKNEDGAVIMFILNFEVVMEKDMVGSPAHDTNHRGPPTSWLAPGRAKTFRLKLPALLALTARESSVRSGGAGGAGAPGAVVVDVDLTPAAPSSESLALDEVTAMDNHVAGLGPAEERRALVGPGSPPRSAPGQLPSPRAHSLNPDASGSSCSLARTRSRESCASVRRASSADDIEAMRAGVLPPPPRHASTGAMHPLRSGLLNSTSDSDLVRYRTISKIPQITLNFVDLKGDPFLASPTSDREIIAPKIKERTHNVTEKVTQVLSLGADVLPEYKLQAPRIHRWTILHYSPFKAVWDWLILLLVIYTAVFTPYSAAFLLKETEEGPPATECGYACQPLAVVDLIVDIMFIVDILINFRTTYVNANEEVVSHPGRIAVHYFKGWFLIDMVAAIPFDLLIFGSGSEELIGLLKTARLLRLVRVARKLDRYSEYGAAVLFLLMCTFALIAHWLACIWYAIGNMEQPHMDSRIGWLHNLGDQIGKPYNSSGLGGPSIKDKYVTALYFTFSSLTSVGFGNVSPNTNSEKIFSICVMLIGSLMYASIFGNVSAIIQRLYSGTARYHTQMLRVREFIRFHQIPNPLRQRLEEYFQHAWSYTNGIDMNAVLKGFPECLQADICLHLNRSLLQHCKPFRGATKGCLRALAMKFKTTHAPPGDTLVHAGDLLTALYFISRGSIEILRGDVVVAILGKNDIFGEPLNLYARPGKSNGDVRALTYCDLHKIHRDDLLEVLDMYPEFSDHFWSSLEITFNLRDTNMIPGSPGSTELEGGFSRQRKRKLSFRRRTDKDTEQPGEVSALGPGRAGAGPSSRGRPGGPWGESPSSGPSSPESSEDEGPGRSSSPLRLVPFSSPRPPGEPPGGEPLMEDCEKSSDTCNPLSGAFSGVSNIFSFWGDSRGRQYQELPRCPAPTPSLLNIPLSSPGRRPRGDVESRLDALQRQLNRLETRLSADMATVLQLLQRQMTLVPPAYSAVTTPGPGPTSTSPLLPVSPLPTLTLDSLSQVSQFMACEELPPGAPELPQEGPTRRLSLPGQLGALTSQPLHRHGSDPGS

| Compound | IC50 (Nitric oxide synthase 1) | IC50 (Nitric oxide synthase 3) | IC50 [1] | IC50 [3] | inhibition (INH) [2] |
| --- | --- | --- | --- | --- | --- |
| N=C(Nc1ccc2c(c1)CCCCN2C1CCNCC1)c1cccs1 | 2.38 µM |  |  |  |  |
| N=C(Nc1ccc2c(c1)CCCCN2CCN1CCCCC1)c1cccs1 | 1.96 µM |  |  |  |  |
| CNCCN1CCCCc2cc(NC(=N)c3cccs3)ccc21 | 0.1 µM |  | > 100 µM |  |  |
| CN1CCC(N2CCCCc3cc(NC(=N)c4cccs4)ccc32)C1 (racemic) |  |  | > 100 µM |  |  |
| CN1CCCC1CCN1CCCCc2cc(NC(=N)c3cccs3)ccc21 (racemic) | 1.86 µM |  | > 100 µM |  |  |

Continued, in another order:

| IC50 (Nitric oxide synthase 1) | IC50 (Nitric oxide synthase 3) | IC50 [1] | IC50 [3] | Compound | inhibition (INH) [2] |
| --- | --- | --- | --- | --- | --- |
| 0.16 µM | 82.2 µM | 16.9 µM |  | N=C(Nc1ccc2c(c1)CCCCN2CCN1CCCC1)c1cccs1 |  |
|  |  | 1.5 µM | > 100 µM | CN(C)CCN1CCCCc2cc(NC(=N)c3cccs3)ccc21.Cl.Cl | Not Active |
|  |  | 13.5 µM |  | N=C(Nc1ccc2c(c1)CCCCN2C1CCNC1)c1cccs1 (racemic) |  |
